# Results from the supplement of paper PMC4862054.
# Values joined by “and” are separate entries in the source; they are usually repeats but may differ in a detail not shown here. Identical values can stand only once.
# Tests used:
# Conditions in all cases: incubation time: 72 h
# [1] = tested on: BT-474; assay: drug sensitivity score (DSS), CellTox Green (DSS (AUC-based score)); higher = stronger drug effect (viability inhibition or cytotoxicity); extreme values may be limits of the assay
# In short: (§1)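 For 72 h, breast cancer cell lines seeded at 20 µl suspension per well in 384-well plates were incubated with compound at 5 concentrations in 10-fold steps spanning a 10,000-fold range that differed by compound. The first reading was CellTox Green fluorescence at 485/520 nm, and the second was CellTiter-Glo luminescence after 10 min at room temperature. Both were normalised per plate to 0.1 % DMSO and a positive kill control, and the drug sensitivity score was obtained from the area under the fitted dose-response curve.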
# [2] = tested on: HCC1937; assay: as above
# In short: as §1
# [3] = tested on: MDA-MB-436; assay: as above
# In short: as §1
# [4] = tested on: HCC1599; assay: as above
# In short: as §1
# [5] = tested on: BT-549; assay: as above
# In short: as §1
# [6] = tested on: DU-4475; assay: as above
# In short: as §1
# [7] = tested on: HDQ-P1; assay: normalised viability (% of control), CellTiter-Blue; higher = more viable cells (about 100 = DMSO control)
# Experimental: (§2)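 DSRT, CellTiter-Blue viability, 72 h incubation. Signal is normalised to DMSO and benzethonium chloride controls. Value is the normalised response at dose 7.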
# [8] = tested on: MDA-MB-453; assay: as above
# Experimental: as §2
# [9] = tested on: CAL-51; assay: as above
# Experimental: as §2
# [10] = tested on: CAL-148; assay: as above
# Experimental: as §2
# [11] = tested on: CAL-85-1; assay: as above
# Experimental: as §2
# [12] = tested on: DU-4475; assay: as above
# Experimental: as §2
# [13] = tested on: HDQ-P1; assay: normalised viability (% of control), CellTiter-Blue; higher = more viable cells (about 100 = DMSO control); remark: listed apart in the source
# In short: (§3)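 Seeded at 20 µl suspension per well onto compound-loaded 384-well plates, breast cancer cell lines were incubated 72 h. CellTiter-Blue fluorescence at 560/590 nm was then read, with each plate normalised to vehicle (100) and a positive kill control (0). Normalised viability is reported at a single listed concentration of the series.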
# [14] = tested on: SK-BR-3; assay: as above
# In short: as §3
# [15] = tested on: BT-474; assay: as above
# In short: as §3
# [16] = tested on: HCC1937; assay: as above
# In short: as §3
# [17] = tested on: MDA-MB-453; assay: as above; remark: listed apart in the source
# In short: as §3
# [18] = tested on: MDA-MB-436; assay: as above
# In short: as §3
# [19] = tested on: CAL-120; assay: as above
# In short: as §3
# [20] = tested on: HCC1599; assay: as above
# In short: as §3
# [21] = tested on: CAL-51; assay: as above; remark: listed apart in the source
# In short: as §3
# [22] = tested on: Hs578T; assay: as above
# In short: as §3
# [23] = tested on: CAL-148; assay: as above; remark: listed apart in the source
# In short: as §3
# [24] = tested on: MFM-223; assay: as above
# In short: as §3
# [25] = tested on: CAL-85-1; assay: as above; remark: listed apart in the source
# In short: as §3
# [26] = tested on: MDA-MB-468; assay: as above
# In short: as §3
# [27] = tested on: BT-549; assay: as above
# In short: as §3
# [28] = tested on: DU-4475; assay: as above; remark: listed apart in the source
# In short: as §3
# [29] = tested on: HCC1143; assay: as above
# In short: as §3
# [30] = tested on: MDA-MB-231; assay: as above
# In short: as §3
smiles,measurement,setting,value
Cn1c(=O)n(-c2ccc(C(C)(C)C#N)cc2)c2c3cc(-c4cnc5ccccc5c4)ccc3ncc21 [Dactolisib],drug sensitivity score,[1],0
same,drug sensitivity score,[2],7.09
same,drug sensitivity score,[3],0
same,drug sensitivity score,[4],0
same,drug sensitivity score,[5],0
same,drug sensitivity score,[6],0
CO[C@H]1C[C@@H]2CC[C@@H](C)[C@@](O)(O2)C(=O)C(=O)N2CCCC[C@H]2C(=O)O[C@H]([C@H](C)C[C@@H]2CC[C@@H](OCCO)[C@H](OC)C2)CC(=O)[C@H](C)/C=C(\C)[C@@H](O)[C@@H](OC)C(=O)[C@H](C)C[C@H](C)/C=C/C=C/C=C/1C [Everolimus],drug sensitivity score,[1],0
same,drug sensitivity score,[2],0
same,drug sensitivity score,[3],0
same,drug sensitivity score,[4],0
same,drug sensitivity score,[5],8.1
same,drug sensitivity score,[6],0
same,normalised viability,[7]; 100 nM,72.6% and 57.6%
same,normalised viability,[8]; 100 nM,29.1% and 22.3%
same,normalised viability,[9]; 100 nM,36.9% and 38%
same,normalised viability,[10]; 100 nM,42% and 40.4%
same,normalised viability,[11]; 100 nM,61.3% and 49.3%
same,normalised viability,[12]; 100 nM,49.9% and 56%
same,normalised viability,[13]; 0.3 nM,84.7% and 79.8%
same,normalised viability,[14]; 1 nM,80.9% and 64.3%
same,normalised viability,[15]; 1 nM,76.6% and 65.5%
same,normalised viability,[16]; 1 nM,52.2% and 56.6%
same,normalised viability,[17]; 0.3 nM,71.9% and 70%
same,normalised viability,[18]; 1 nM,87.7% and 75.2%
same,normalised viability,[19]; 1 nM,59.3% and 51.9%
same,normalised viability,[20]; 1 nM,107% and 111%
same,normalised viability,[21]; 0.3 nM,89.6% and 89.8%
same,normalised viability,[22]; 1 nM,61% and 59.5%
same,normalised viability,[23]; 0.3 nM,77.8% and 72.2%
same,normalised viability,[24]; 1 nM,55.5% and 51.7%
same,normalised viability,[25]; 0.3 nM,73.8% and 72%
same,normalised viability,[26]; 1 nM,72% and 74.4%
same,normalised viability,[27]; 1 nM,64.4% and 54.3%
same,normalised viability,[28]; 0.3 nM,86.3% and 104%
CCCCCCCCc1ccc(CCC(N)(CO)CO)cc1 [Fingolimod],drug sensitivity score,[1],5.23
same,drug sensitivity score,[2],17.9
same,drug sensitivity score,[3],2.64
same,drug sensitivity score,[4],0
same,drug sensitivity score,[5],1.17
same,drug sensitivity score,[6],0
same,normalised viability,[7]; 1000 nM,110%
same,normalised viability,[8]; 1000 nM,103%
same,normalised viability,[9]; 1000 nM,112%
same,normalised viability,[10]; 1000 nM,96.3%
same,normalised viability,[11]; 1000 nM,93.4%
same,normalised viability,[12]; 1000 nM,109%
same,normalised viability,[13]; 3 nM,116%
same,normalised viability,[14]; 10 nM,106%
same,normalised viability,[15]; 10 nM,121%
same,normalised viability,[16]; 10 nM,116%
same,normalised viability,[17]; 3 nM,114%
same,normalised viability,[18]; 10 nM,100%
same,normalised viability,[19]; 10 nM,91%
same,normalised viability,[20]; 10 nM,88.3%
same,normalised viability,[21]; 3 nM,119%
same,normalised viability,[22]; 10 nM,98.1%
same,normalised viability,[23]; 3 nM,85.7%
same,normalised viability,[24]; 10 nM,92.5%
same,normalised viability,[25]; 3 nM,92.2%
same,normalised viability,[26]; 10 nM,106%
same,normalised viability,[27]; 10 nM,94%
same,normalised viability,[29]; 10 nM,80.8%
same,normalised viability,[30]; 10 nM,94.8%
same,normalised viability,[28]; 3 nM,103%
Cc1cc2c(C(C)C)c(O)c(O)c(C=O)c2c(O)c1-c1c(C)cc2c(C(C)C)c(O)c(O)c(C=O)c2c1O [Gossypol],normalised viability,[7]; 10000 nM,52.5%
same,normalised viability,[8]; 10000 nM,18.4%
same,normalised viability,[9]; 10000 nM,60.5%
same,normalised viability,[10]; 10000 nM,70.7%
same,normalised viability,[11]; 10000 nM,45.8%
same,normalised viability,[12]; 10000 nM,2.82%
same,normalised viability,[13]; 30 nM,139%
same,normalised viability,[14]; 100 nM,106%
same,normalised viability,[15]; 100 nM,115%
same,normalised viability,[16]; 100 nM,116%
same,normalised viability,[17]; 30 nM,106%
same,normalised viability,[18]; 100 nM,106%
same,normalised viability,[19]; 100 nM,109%
same,normalised viability,[20]; 100 nM,87.6%
same,normalised viability,[21]; 30 nM,97.1%
same,normalised viability,[22]; 100 nM,137%
same,normalised viability,[23]; 30 nM,94.2%
same,normalised viability,[24]; 100 nM,105%
same,normalised viability,[25]; 30 nM,101%
same,normalised viability,[26]; 100 nM,101%
same,normalised viability,[27]; 100 nM,114%
same,normalised viability,[29]; 100 nM,115%
same,normalised viability,[30]; 100 nM,94.1%
same,normalised viability,[28]; 30 nM,94.1%
Cc1ccc(NC(=O)c2ccc(CN3CCN(C)CC3)cc2)cc1Nc1nccc(-c2cccnc2)n1 [Imatinib],drug sensitivity score,[1],0
same,drug sensitivity score,[2],0
same,drug sensitivity score,[3],0
same,drug sensitivity score,[4],0
same,drug sensitivity score,[5],0
same,drug sensitivity score,[6],0
same,normalised viability,[7]; 1000 nM,106% and 122%
same,normalised viability,[8]; 1000 nM,110% and 92.5%
same,normalised viability,[9]; 1000 nM,106% and 102%
same,normalised viability,[10]; 1000 nM,82.7% and 100%
same,normalised viability,[11]; 1000 nM,92.6% and 82.5%
same,normalised viability,[12]; 1000 nM,115% and 108%
same,normalised viability,[13]; 3 nM,132% and 110%
same,normalised viability,[14]; 10 nM,97.5% and 99.9%
same,normalised viability,[15]; 10 nM,108% and 112%
same,normalised viability,[16]; 10 nM,89.5% and 92.4%
same,normalised viability,[17]; 3 nM,129% and 110%
same,normalised viability,[18]; 10 nM,117% and 111%
same,normalised viability,[19]; 10 nM,81.6% and 90.2%
same,normalised viability,[20]; 10 nM,105% and 120%
same,normalised viability,[21]; 3 nM,111% and 108%
same,normalised viability,[22]; 10 nM,106% and 119%
same,normalised viability,[23]; 3 nM,80.4% and 92.6%
same,normalised viability,[24]; 10 nM,95.9% and 112%
same,normalised viability,[25]; 3 nM,91.5% and 91.4%
same,normalised viability,[26]; 10 nM,95.9% and 102%
same,normalised viability,[27]; 10 nM,87.7% and 100%
same,normalised viability,[29]; 10 nM,79% and 81.2%
same,normalised viability,[30]; 10 nM,81% and 98.2%
same,normalised viability,[28]; 3 nM,92.2% and 97.2%
Nc1nc(OCc2cc(Br)cs2)c2[nH]cnc2n1 [Lomeguatrib],drug sensitivity score,[1],0
same,drug sensitivity score,[2],1.11
same,drug sensitivity score,[3],0
same,drug sensitivity score,[4],0
same,drug sensitivity score,[5],0
same,drug sensitivity score,[6],0
Cn1c(=O)n(-c2ccc(C(C)(C)C#N)cc2)c2c3cc(-c4cnc5ccccc5c4)ccc3ncc21 [NVP-BEZ235],normalised viability,[7]; 100 nM,38.3%
same,normalised viability,[8]; 100 nM,16.8%
same,normalised viability,[9]; 100 nM,22.3%
same,normalised viability,[10]; 100 nM,16.1%
same,normalised viability,[11]; 100 nM,31.4%
same,normalised viability,[12]; 100 nM,37.2%
same,normalised viability,[13]; 0.3 nM,110%
same,normalised viability,[14]; 1 nM,105%
same,normalised viability,[15]; 1 nM,105%
same,normalised viability,[16]; 1 nM,128%
same,normalised viability,[17]; 0.3 nM,110%
same,normalised viability,[18]; 1 nM,126%
same,normalised viability,[19]; 1 nM,89.8%
same,normalised viability,[20]; 1 nM,104%
same,normalised viability,[21]; 0.3 nM,105%
same,normalised viability,[22]; 1 nM,100%
same,normalised viability,[23]; 0.3 nM,95.2%
same,normalised viability,[24]; 1 nM,99.1%
same,normalised viability,[25]; 0.3 nM,96.6%
same,normalised viability,[26]; 1 nM,102%
same,normalised viability,[27]; 1 nM,101%
same,normalised viability,[29]; 1 nM,83.5%
same,normalised viability,[30]; 1 nM,97.4%
same,normalised viability,[28]; 0.3 nM,125%
COc1ccccc1S(=O)(=O)Nc1ccc2c(c1)CN(C)C(=O)N2 [PFI-1],drug sensitivity score,[1],0
same,drug sensitivity score,[2],0
same,drug sensitivity score,[3],0
same,drug sensitivity score,[4],0
same,drug sensitivity score,[5],0
same,drug sensitivity score,[6],0
NS(=O)(=O)OC[C@@H]1C[C@@H](n2ccc3c(N[C@H]4CCc5ccccc54)ncnc32)C[C@@H]1O [Pevonedistat],drug sensitivity score,[1],0
same,drug sensitivity score,[2],0
same,drug sensitivity score,[3],6.93
same,drug sensitivity score,[4],0.787
same,drug sensitivity score,[5],0
same,drug sensitivity score,[6],4.01
